From BindingDB's records for patent US20240294509 (Euregen Biopharma Co., 2024)

What was measured:
[1] = biological target: Poly [ADP-ribose] polymerase 1 (Homo sapiens, UniProt P09874); test: Inhibition of Compounds on PARP1/7 Enzyme Activity
Text: (§1) Fit the dose-response data with standard dilutions using Prism GraphPad software and calculate the concentration required to achieve 5000 inhibition of PARP1 or PARP7 enzyme activity (IC50).

[2] = biological target: T1, Protein mono-ADP-ribosyltransferase TIPARP (Homo sapiens, UniProt Q7Z3E1); test: Inhibition of Compounds on PARP1/7 Enzyme Activity
T1 sequence (Q7Z3E1 whole entry): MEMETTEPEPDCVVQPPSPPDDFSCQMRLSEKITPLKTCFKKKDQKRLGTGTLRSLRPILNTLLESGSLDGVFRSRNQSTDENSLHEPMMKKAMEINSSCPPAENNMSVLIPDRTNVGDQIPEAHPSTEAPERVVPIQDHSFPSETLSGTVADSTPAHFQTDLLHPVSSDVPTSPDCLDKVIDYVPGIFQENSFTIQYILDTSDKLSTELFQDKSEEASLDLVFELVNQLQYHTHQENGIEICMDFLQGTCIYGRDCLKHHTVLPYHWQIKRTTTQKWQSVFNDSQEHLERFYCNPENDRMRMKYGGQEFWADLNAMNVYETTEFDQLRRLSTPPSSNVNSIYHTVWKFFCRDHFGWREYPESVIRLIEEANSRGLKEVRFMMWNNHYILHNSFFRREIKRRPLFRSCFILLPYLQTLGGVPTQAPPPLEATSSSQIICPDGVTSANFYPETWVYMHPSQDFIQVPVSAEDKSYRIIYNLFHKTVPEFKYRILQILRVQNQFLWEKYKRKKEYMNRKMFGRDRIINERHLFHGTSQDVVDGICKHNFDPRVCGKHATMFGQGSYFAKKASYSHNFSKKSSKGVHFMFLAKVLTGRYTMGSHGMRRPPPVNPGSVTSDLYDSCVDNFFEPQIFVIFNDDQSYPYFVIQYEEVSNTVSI
Text: as §1

Chain of Poly [ADP-ribose] polymerase 1 (P09874 whole entry): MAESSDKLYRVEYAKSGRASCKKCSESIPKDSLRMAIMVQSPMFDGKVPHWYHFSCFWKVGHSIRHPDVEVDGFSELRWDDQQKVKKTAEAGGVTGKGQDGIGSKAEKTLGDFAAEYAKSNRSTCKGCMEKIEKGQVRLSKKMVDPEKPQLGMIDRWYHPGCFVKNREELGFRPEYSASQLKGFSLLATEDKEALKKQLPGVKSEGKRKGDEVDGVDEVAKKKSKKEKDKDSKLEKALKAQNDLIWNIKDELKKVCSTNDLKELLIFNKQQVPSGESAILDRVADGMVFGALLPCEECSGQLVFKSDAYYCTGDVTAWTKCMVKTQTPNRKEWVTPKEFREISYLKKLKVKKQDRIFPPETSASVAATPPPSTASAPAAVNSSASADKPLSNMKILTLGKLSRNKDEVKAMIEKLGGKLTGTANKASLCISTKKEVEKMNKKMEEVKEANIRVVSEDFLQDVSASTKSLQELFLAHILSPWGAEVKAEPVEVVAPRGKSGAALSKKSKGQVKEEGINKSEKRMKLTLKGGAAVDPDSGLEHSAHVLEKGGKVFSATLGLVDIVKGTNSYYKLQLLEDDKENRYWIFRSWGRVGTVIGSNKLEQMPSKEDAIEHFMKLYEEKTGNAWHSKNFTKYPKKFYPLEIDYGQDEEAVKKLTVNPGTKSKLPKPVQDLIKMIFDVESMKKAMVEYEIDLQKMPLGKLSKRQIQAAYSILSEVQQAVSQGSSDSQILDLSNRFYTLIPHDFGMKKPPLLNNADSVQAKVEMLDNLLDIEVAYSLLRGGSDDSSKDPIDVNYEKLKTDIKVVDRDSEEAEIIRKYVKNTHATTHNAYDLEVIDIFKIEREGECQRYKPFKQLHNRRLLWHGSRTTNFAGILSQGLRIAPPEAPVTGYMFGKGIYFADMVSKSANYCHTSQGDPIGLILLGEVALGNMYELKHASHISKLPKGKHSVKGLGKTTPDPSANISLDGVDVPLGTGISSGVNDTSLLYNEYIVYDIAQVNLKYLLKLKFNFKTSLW

IC50 [1]	IC50 [2]	SMILES
2020 nM	4.4 nM	O=C(CC[C@@H]1C[C@H](Oc2ccccc2)CN1c1cc(C(F)(F)F)c(=O)[nH]n1)N1CCN(c2ncc(C(F)(F)F)cn2)CC1 [US20240294509, Compound 19]
79 nM	26 nM	O=C(CC[C@@H]1C[C@@H](Oc2cccc(Cl)c2)CN1c1cc(C(F)(F)F)c(=O)[nH]n1)N1CCN(c2ncc(C(F)(F)F)cn2)CC1 [US20240294509, Compound 49]
1.3 nM	2.9 nM	O=C(CC[C@@H]1CCCN1c1cc(C(F)(F)F)c(=O)[nH]n1)N1CCN(c2ncc(C(F)(F)F)cn2)CC1
49 nM	3.2 nM	O=C(CC[C@@H]1C[C@@H](F)CN1c1cc(C(F)(F)F)c(=O)[nH]n1)N1CCN(c2ncc(C(F)(F)F)cn2)CC1 [US20240294509, Compound 20]
293 nM	4 nM	O=C(COC[C@@H]1CCCN1c1cc(C(F)(F)F)c(=O)[nH]n1)N1CCN(c2ncc(C(F)(F)F)cn2)CC1 [US20240294509, Compound 1]
15 nM	13 nM	O=C(CC[C@@H]1C[C@@H](Oc2ccc(F)cc2F)CN1c1cc(C(F)(F)F)c(=O)[nH]n1)N1CCN(c2ncc(C(F)(F)F)cn2)CC1 [US20240294509, Compound 50]
15600 nM	82 nM	O=C(CC[C@@H]1C[C@H](Oc2cc(F)cc(F)c2)CN1c1cc(C(F)(F)F)c(=O)[nH]n1)N1CCN(c2ncc(C(F)(F)F)cn2)CC1 [US20240294509, Compound 55]
179 nM	3 nM	O=C(CC[C@@H]1C[C@@H](Oc2cncnc2)CN1c1cc(C(F)(F)F)c(=O)[nH]n1)N1CCN(c2ncc(C(F)(F)F)cn2)CC1 [US20240294509, Compound 63]
3190 nM	54 nM	O=C(CC[C@@H]1C[C@H](Oc2ccc(F)c(F)c2)CN1c1cc(C(F)(F)F)c(=O)[nH]n1)N1CCN(c2ncc(C(F)(F)F)cn2)CC1 [US20240294509, Compound 58]
